The target of the assay is T1, NrdI (Bacillus cereus, UniProt Q81G57).
T1 construct: untagged by purification route (IEX, SEC); pET-22b(+) XbaI/HindIII; E. coli BL21(DE3)
T1 sequence (Q81G57 1-119): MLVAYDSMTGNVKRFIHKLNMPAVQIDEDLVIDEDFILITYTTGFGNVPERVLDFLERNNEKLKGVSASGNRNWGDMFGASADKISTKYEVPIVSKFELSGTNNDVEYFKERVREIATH
The experiment in a line: X-ray crystallography (students re-solve previously collected semiquinone data); UV-vis of co-purified cofactor with dithionite titration. Type of assay: binding. The following applies: crystal in semiquinone state (FMNH•); 1.15 Å; UV-vis in 50 mM Tris-HCl pH 7.5; native bound cofactor.

SMILES strings stand for the structures.

As to `Cc1cc2nc3c(=O)[nH]c(=O)nc-3n(C[C@H](O)[C@H](O)[C@H](O)COP(=O)(O)O)c2cc1C` [FMN], the “X-ray crystallography (students re-solve previously collected semiquinone data);” value is given as “Overall structure of the B. cereus NrdI, with the FMN cofactor represented as sticks”.

The values are drawn from PMC6594058, “A Research‐inspired biochemistry laboratory module–combining expression, purification, crystallization, structure‐solving, and characterization of a flavodoxin‐like protein” (Biochemistry and Molecular Biology Education, 2019).
